Values of other authors as cited in patent publication US20210023023A1, “LIPOSOMAL NUTRACEUTICAL COMPOSITIONS AND METHODS OF MAKING THE SAME” (VASAYO, LLC, priority 2019, published 2021).

Conditions: in studies

In the case of `C=C(C)[C@@H]1CCC(C)=C[C@H]1c1c(O)cc(CCCCC)cc1O` [CBD, cannabidiol], the “anti-inflammatory effects, potency relative to aspirin” value is listed as “several hundred times more potent than aspirin”.
